Each structure is given as a SMILES string. Where only a bound is given, the exact number is not on record here.

For the test, the system named is Phosphorylation of STAT6 in human PBMC (CD19+ B cells). As to the kind of experiment: Phosphorylated STAT6 (pSTAT6) flow cytometry assay in human PBMC, IL-4 stimulated. The conditions noted are these: compound 1 hour, 1 ng/ml IL-4 for 15 minutes, read-out: STAT6 IL4 pSTAT6 assay in PBMC: Average IC50. In kind it is cell-based. An outline of the steps: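 Human PBMC preincubated 1 h at 37 °C with compound (9-point 1:3 series, top up to 30 μM), then stimulated with 1 ng/ml IL-4 for 15 min. After fixation, methanol permeabilization and staining, pSTAT6 quantified in CD19+ B cells by flow cytometry; four-parameter fit of inhibition.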
A general note: Flow cytometry measures light scatter and fluorescence of single cells or particles in a stream.
For orientation: IC50 means the concentration needed to halve the response being measured. In the case of `CN(C)C(=O)c1cc2cc(C3=CCCN(C(=O)CCc4cccs4)C3)ccc2o1` [Example I-299], the IC50 was greater than 100 µM. For `CN(C)C(=O)c1cc2cc(C3=CCCN(C(=O)CCn4ccnn4)C3)cnc2s1` [Example I-244] the value was greater than 100 µM.

On to `CN(C)C(=O)c1cc2cc(C3=CCCN(C(=O)CCn4ccnn4)C3)cc(CN3CCNCC3)c2o1` [Example I-167], for which the concentration for half-maximal inhibition (IC50) was greater than 100 µM. For `CN(C)C(=O)c1cc2ccc(C3=CCCN(C(=O)c4cc(C#N)ccc4Br)C3)cc2[nH]1` [Example I-144] the value was greater than 100 µM; for `CN(C)C(=O)c1cc2ccc(C3=CCCN(C(=O)CCc4ccc(C#N)cc4)C3)cc2[nH]1` [Example I-162], greater than 100 µM. For `O=C(NCCO)c1cc2cc(C3=CCCN(C(=O)CCn4ccnn4)C3)ccc2o1` [Example I-307] the value was greater than 100 µM; for `CN(C)C(=O)c1cc2ccc(C3=CCCN(C(=O)C4(c5ccc(C(F)(F)F)cc5)CC4)C3)cc2[nH]1` [Example I-84], greater than 100 µM; for `CN(C)C(=O)c1cc2ccc(C3=CCCN(C(=O)C4CCN(c5ncccc5C(=O)O)CC4)C3)cc2[nH]1` [Example I-109], 10 to 100 µM.

For `C[C@H](Cn1ccnn1)C(=O)N1CCC=C(c2ccc3oc(C(=O)N(C)C)cc3c2)C1` (single isomer, unassigned) [Example I-228], the 50% inhibitory concentration (IC50) lay in the range of 10 to 100 µM. The value for `CNc1ccc(-c2cc(C3=CCCN(C(=O)CCn4ccnn4)C3)cc3cc(C(=O)N(C)C)oc23)cc1` [Example I-204] was greater than 100 µM; that for `CCC(=O)N1Cc2ccccc2CC1C(=O)N1CCC=C(c2ccc3oc(C(=O)N(C)C)cc3c2)C1` (stereo not shown) [Example I-188] was greater than 100 µM. For `CN(C)C(=O)c1cc2cc(C3=CCCN(C(=O)Cc4ccc5ccccc5c4)C3)ccc2o1` [Example I-295] the value was greater than 100 µM. On to `CN(C)C(=O)c1cc2ccc(C3=CCCN(C(=O)CCc4nnc[nH]4)C3)cc2[nH]1` [Example I-21], for which the 50% inhibitory concentration (IC50) was greater than 100 µM.

As to `CN(C)C(=O)c1cc2cc(C3=CCCN(C(=O)C4Cc5ccccc5CN4C=O)C3)ccc2[nH]1` (stereo not shown) [Example I-201], the half-maximal inhibitory concentration (IC50) was greater than 100 µM. The value for `CN(C)C(=O)c1cc2cc(C3=CCCN(C(=O)CCc4cccnn4)C3)ccc2o1` [Example I-220] was greater than 100 µM. As to `CN(C)C(=O)c1cc2cc(C3=CCCN(C(=O)Cc4ccccn4)C3)ccc2o1` [Example I-263], the 50% inhibitory concentration (IC50) was greater than 100 µM. For the compound `Cc1cc(CC(=O)N2CCC=C(c3ccc4cc(C(=O)N(C)C)[nH]c4c3)C2)on1` [Example I-133], the IC50 was greater than 100 µM.

As to `CCN[C@H](Cn1ccnn1)C(=O)N1CCC=C(c2ccc3oc(C(=O)N(C)C)cc3c2)C1` [Example I-169], the IC50 is greater than 100 µM.

Regarding `CN(C)C(=O)c1cc2cc([C@@H]3CN(C(=O)CCn4ccnn4)CC[C@H]3O)ccc2o1` (single isomer, unassigned) [Example I-209], the IC50 is greater than 100 µM. Turning to `CN(C)C(=O)c1cc2ccc(C3=CCCN(C(=O)CN4CCOC4=O)C3)cc2[nH]1` [Example I-42], the half-inhibitory concentration (IC50) fell in the range of 10 to 100 µM.

For `CN(C)C(=O)c1cc2ccc(C3=CCCN(C(=O)C4Cc5ccccc5CN4C=O)C3)cc2[nH]1` (stereo not shown) [Example I-202], the IC50 lay within 0.1 to 1 µM.

`CN(C)C(=O)c1cc2ccc(C3=CCCN(C(=O)CC(C)(C)NCc4ccccc4)C3)cc2[nH]1` [Example I-135]: the IC50 was greater than 100 µM.

On to `CN(C)C(=O)c1cc2cc(C3=CCCN(C(=O)Cc4nc5ccccc5[nH]4)C3)ccc2o1` [Example I-245], for which the IC50 is greater than 100 µM.

Regarding `O=C(CCn1ccnn1)N1CCC=C(c2ccc3cc(C(=O)N4CCCCC4)[nH]c3c2)C1` [Example I-123], the IC50 lay within 10 to 100 µM.

For the compound `CC(=O)NCc1ccc(CC(=O)N2CCC=C(c3ccc4oc(C(=O)N(C)C)cc4c3)C2)cc1` [Example I-252], the IC50 was greater than 100 µM. As to `CN(C)C(=O)c1cc2cc(C3=CCCN(C(=O)Cn4ccc5ccccc54)C3)ccc2o1` [Example I-274], the IC50 is greater than 100 µM. The value for `CN(C)C(=O)c1cc2ccc(C3=CCCN(C(=O)C4CC4F)C3)cc2[nH]1` (stereo not shown) [Example I-26] was greater than 100 µM. As to `CN(C)C(=O)c1cc2ccc(C3=CCCN(C(=O)c4cccnc4SCc4ccccc4)C3)cc2[nH]1` [Example I-95], the IC50 was greater than 100 µM.

`CN(C)C(=O)c1cc2ccc(C3=CCCN(C(=O)[C@@H]4CCCN4C(=O)c4ccc(F)cc4)C3)cc2[nH]1` [Example I-99]: the IC50 was greater than 100 µM. For `CN(C)C(=O)c1nc2cc(C3=CCCN(C(=O)CCn4ccnn4)C3)ccc2o1` [Example I-214] the value was greater than 100 µM; for `CC(=O)NC(Cc1cccc(F)c1)C(=O)N1CCC=C(c2ccc3cc(C(=O)N(C)C)[nH]c3c2)C1` (stereo not shown) [Example I-82], 10 to 100 µM; for `CN(C)C(=O)c1cc2ccc(C3=CCCN(C(=O)c4ccc(N5CCOCC5)c(F)c4)C3)cc2[nH]1` [Example I-158], greater than 100 µM. In the case of `CN(C)C(=O)c1cc2cc(C3=CCCN(C(=O)Cc4ccncn4)C3)ccc2o1` [Example I-270], the IC50 was greater than 100 µM. For `CN(C)C(=O)c1cc2cc([C@H]3CN(C(=O)CCn4ccnn4)CC[C@@H]3O)ccc2o1` (single isomer, unassigned) [Example I-210] the value was greater than 100 µM; for `CN(C)C(=O)c1cc2cc(C3=CCCN(C(=O)CCc4ccc5ccccc5c4)C3)ccc2o1` [Example I-266], greater than 100 µM; for `CN(C)C(=O)c1cc2ccc(C3=CCCN(C(=O)CN(C)S(=O)(=O)c4ccccc4)C3)cc2[nH]1` [Example I-75], 10 to 100 µM. For `CN(C)C(=O)c1cc2ccc(C3=CCCN(C(=O)Cc4c[nH]nn4)C3)cc2[nH]1` [Example I-38] the value was greater than 100 µM.

The record behind these values is patent US20250214977A1, “STAT6 INHIBITORS AND USES THEREOF” (Kymera Therapeutics, Inc., priority 2024, published 2025).
